The subject of series [1] is rat model of hyperalgesia induced by carragenine. As to the kind of experiment: Paw pressure test, hyperalgesia induced by carragenine. The series is classed as in vivo. The protocol: (§1) Male Swiss albino mice (23-25 g) and Sprague Dawley or Wistar rats (150-200 g) were used. The animals were fed a standard laboratory diet and tap water ad libitum and kept at 23±1° C. with a 12 h light/dark cycle, light on at 7 a.m.
The nociceptive threshold in the rat was determined with an analgesimeter, according to the method described by Leighton et al, G. E.; Br. J. Pharmacol. 1988, 93, 553-560. Threshold pressure was measured before and 30, 60 and 120 min after treatment. An arbitrary cut-off value of 250 g was adopted. In order to induce an inflammatory process in the rat paw carrageenan (0.1 ml, 1%) was administered i.p. 4 h before test.

Series [2] concerns rat model of edema induced by carragenine. Nature of the series: Carrageenan-induced paw edema. To be noted: 1 h, 60 min, read-out: Edema inhibition 60 min, MPE. The series is classed as in vivo. The protocol: as §1
Rats paw volumes were measured using a plethysmometer. Rats received the investigated compounds 4 hours after a 0.1-ml injection of 1.0% carrageenan in the right hind paw. Five hours after the injection of carrageenan (i.e. 1 hour after the administration of the investigated compound), the paw volume of the right hind paw was measured and compared with saline/carrageenan-treated controls. Results are reported as maximum percent effect (MPE), see below for detailed explanation.
A general note: Carrageenan injected into the paw causes an acute inflammation.

For series [3], the system named is rat model of hyperalgesia induced by Zymosan. Nature of the series: Zymosan-induced hyperalgesia (Randal-Selitto). The series is classed as in vivo. The conditions noted are these: oral. The protocol: as §1
(§2) The interplantar injection of Zymosan-induced mechanical hyperalgesia may be used as a model of inflammatory pain (Meller, Neuropharmacology, 1994, 33, 1471-1478). In this model, typically a male Sprague-Dawely or Wistar rat (200-250 g) receives an interplantar injection of 4 mg/100 μl zymosan into one hind paw. A marked inflammation occurs in this hind paw. Drugs are administered orally for evaluation of efficacy, 30 min. before the inflammatory insult. The hyperalgesia induced by zymosan administration was evaluated using the Randal-Selitto method (Arch. Int. Pharmacodyn., 1957, 111, 409). The quantitation of the analgesic effect is achieved by an analgesimeter, which consist in applying to the inflamed paw an increasing weight (from 130-140 g up to 500 g). The difference in the mechanical pain threshold between the basal value (generally 230-250 g) and the one tolerated by the animals treated with the drug, determined 4 hours after the inflammatory challenge, is defined as mechanical hyperalgesia.
Mechanical hyperalgesia is expressed for the compounds of the invention as maximum percent effect (MPE) which represents the difference (%) in pain threshold between the animals treated with the drug and the controls that received only the vehicle.
Results are reported as MPE (reduction of the nociceptive effect, due to paw loading with increasing weight, in comparison to controls). 100% MPE means that the animal treated with the compound and Zymosan can tolerate the same stimulus (weight) as the control animals which have not received Zymosan treatment. MPE higher than 100% mean that the animal treated with the compound and Zymosan can tolerate stimuli (weight) higher than the control animals, which has not received Zymosan treatment (hypoalgesia).

For series [4], the system named is rat model of edema induced by Zymosan. As to the kind of experiment: Zymosan-induced paw edema. The series is classed as in vivo. The conditions noted are these: oral. The protocol:
as §1, §2
In vivo anti-inflammatory effect exerted by the compounds of the invention can be assessed in the same Zymosan induced inflammation test described above, by measuring the volume of the oedema induced by the inflammatory agent. The oedema was evaluated as the increase in the volume of the Zymosan injected paw within a time of 0-2 hrs. The measurements of the variation of the oedema volume of the paw were recorded using hydroplethysmometer. Results are expressed as MPE, maximum percent effect, that in this case represents the reduction (%) in the oedema of treated animals in comparison to controls (animals treated with Zymosan, which received only the vehicle).

For series [5] the following is noted: study whether Celecoxib could treat AD; cited from earlier work.
The subject of the next series is low-density lipoprotein. The conditions noted are these: cited from earlier work.
A further series deals with T1, COX-2 (Mus musculus, UniProt Q05769).
T1 construct: lipopolysaccharide (LPS, 10 μg/mL) to induce COX-2; endogenous in cells; host or cells: J774 murine monocyte/macrophage cell line, LPS-stimulated
T1 sequence (Q05769 18-604): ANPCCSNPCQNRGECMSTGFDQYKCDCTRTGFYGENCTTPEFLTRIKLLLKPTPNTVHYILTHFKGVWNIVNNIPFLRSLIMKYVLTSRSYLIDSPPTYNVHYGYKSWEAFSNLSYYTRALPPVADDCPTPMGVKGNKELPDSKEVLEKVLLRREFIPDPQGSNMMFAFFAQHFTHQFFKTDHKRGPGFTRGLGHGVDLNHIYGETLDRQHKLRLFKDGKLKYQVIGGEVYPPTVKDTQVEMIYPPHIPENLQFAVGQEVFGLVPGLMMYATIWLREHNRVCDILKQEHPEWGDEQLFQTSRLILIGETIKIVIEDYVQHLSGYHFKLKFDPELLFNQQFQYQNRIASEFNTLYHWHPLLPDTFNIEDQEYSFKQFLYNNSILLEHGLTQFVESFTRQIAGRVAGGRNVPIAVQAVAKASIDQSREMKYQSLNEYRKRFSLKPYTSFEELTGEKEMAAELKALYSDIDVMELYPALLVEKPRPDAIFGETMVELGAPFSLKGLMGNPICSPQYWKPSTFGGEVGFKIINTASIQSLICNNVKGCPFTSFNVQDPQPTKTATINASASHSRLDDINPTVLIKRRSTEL
As to the kind of experiment: Assessment of COX-2 activity in LPS-stimulated J774 cells (PGE2 radioimmunoassay). It counts as cell-based, murine. To be noted: for COX-1/COX-2 Selectivity Index (IC50 ratio): Table 2, Formula Ia. The protocol:
Cells were stimulated for 24 h with E. coli lipopolysaccharide (LPS, 10 μg/mL) to induce COX-2, in the absence or presence of test compounds, at the concentrations previously reported. The supernatants were collected for the measurement of PGE2 by radioimmunoassay.
Analysis. Throughout the time the experiments lasted, triplicate wells were used for the various conditions of treatment. Results are expressed as the mean, for 3 experiments, of the % inhibition of PGE2 production by test compounds with respect to control samples. Data fit was obtained using the sigmoidal dose-response equation (variable slope). The IC50 were calculated by GraphPad Instat program (GraphPad software).

The test system of series [6] is mouse abdominal constriction (writhing). Nature of the series: Mouse abdominal constriction test (acetic acid 0.6%), writhing test. It counts as in vivo. The conditions noted are these: mice, 30 min before test, control 38.1 ± 2.6. The protocol:
as §1
Mice were injected i.p. with a 0.6% solution of acetic acid (10 ml/kg), according to Koster et al. Fed. Proc., 1959, 18, 412. The number of stretching movements was counted for 10 min, starting 5 min after acetic acid injection.
For orientation: In writhing tests, fewer writhes than in controls are read as antinociception.

The conditions of series [7]: VIGOR trial; cited from earlier work.
The next series concerns glaucomatous rabbits. To be noted: not COX-2 dependent effect; cited from earlier work.
Setting [8] is: 0.5 h, 30 min, read-out: Analgesia 30 min MPE.
Where [9] appears, read: 1 h, 60 min, read-out: Analgesia 60 min MPE.

Molecules are shown by their SMILES. Read-outs that look alike come from different tables or passages of the source.

As to `Cc1ccc(-c2cc(C(F)(F)F)nn2-c2ccc(S(N)(=O)=O)cc2)cc1` [Celecoxib], the values for the inhibition in vivo at 20 mg/kg in [1] (setting [8]), in series [1] (setting [9]) and in series [2] were 73%, 81% and 95%, respectively. Also, in series [3] (3 mg/Kg), the “Analgesia 0-2 hrs MPE” value amounted to 30%. Besides, the “Analgesia 0-6 hrs MPE” value in [3] (3 mg/Kg) is on record as 35%. For the same compound, the “Edema 0-6 hrs MPE” value in series [4] (3 mg/Kg) is 24.8%. Moreover, the “incidence of heart attack in the treated group in comparison to placebo” value in [5] is listed as “four times higher”. Also, the “susceptibility of low-density lipoprotein to oxidative modifications” value with low-density lipoprotein was “had no effect”.

For orientation: IC50 means the concentration that gives 50% inhibition. On to `CCOC(=O)Cc1cc(-c2ccc(S(C)(=O)=O)cc2)n(-c2ccc(F)c(F)c2)c1C` [Compound 5b, Ethyl 2-[1-(3,4-difluoro)phenyl-2-methyl-5-(4-methylsulphonyl)phenyl-1H-pyrrol-3-yl]acetate, reference compound], for which the selectivity at COX-2 is more than 5000. The IC50 at COX-2 (read-out: in vitro COX-2 inhibitory potency IC50) worked out at 20 nM. The inhibition in vivo at 20 mg/kg in [1] (setting [8]) was determined as 30%. Also, in series [1] (setting [9]), the inhibition in vivo at 20 mg/kg was 36%. Besides, in series [2], the inhibition in vivo at 20 mg/kg came to 30%. Moreover, in series [3] (4 mg/Kg), the “Analgesia 0-2 hrs MPE” value is reported as 9% and the “Analgesia 0-6 hrs MPE” value was determined as 12%. Besides, in [4] (4 mg/Kg), the “Edema 0-2 hrs MPE” value was 8% and the “Edema 0-6 hrs MPE” value came out at 6%.

Usually melting point stands for the temperature of the solid-liquid transition. `Cc1c(CC(=O)OC(C)C)cc(-c2ccc(S(C)(=O)=O)cc2)n1-c1ccccc1` [Example 1, Isopropyl[2-methyl-5-(4-methylsulphonyl)phenyl-1-phenyl-1H-pyrrol-3-yl]acetate] registered a melting point of 160 °C. Further, the inhibition in vivo at 5 mg/kg in [1] (setting [8]) came to 80%. In [1] (setting [9]), the inhibition in vivo at 5 mg/kg worked out at 60%. Further, in [2] (5 mg/Kg), the inhibition in vivo at 5 mg/kg was 100%. For the same compound, in series [3] (3 mg/Kg), the “Analgesia 0-2 hrs MPE” value was 75% and the “Analgesia 0-6 hrs MPE” value came out at 70%. Further, in series [4] (3 mg/Kg), the “Edema 0-2 hrs MPE” value came out at 20% and the “Edema 0-6 hrs MPE” value is 15%. The Number of writhes in series [6] (5 mg/Kg s.c.) is listed as 28.5 ± 3.3.

In turn, `Cc1c(CC(=O)OC(C)C)cc(-c2ccc(S(C)(=O)=O)cc2)n1-c1ccc(F)c(F)c1` [Example 2, Isopropyl[1-(3,4-difluoro)phenyl-2-methyl-5-(4-methylsulphonyl)phenyl-1H-pyrrol-3-yl]acetate] returned a melting point of 143 °C. Besides, the “COX-1/COX-2 Selectivity Index (IC50 ratio)” value at COX-2 was more than 4700. The inhibition in vivo at 20 mg/kg in series [1] (setting [8]) was found to be 100%. For the same compound, in series [1] (setting [9]), the inhibition in vivo at 20 mg/kg came to 70%. For the same compound, in series [2], the inhibition in vivo at 20 mg/kg is 91%. The same compound showed a Number of writhes in series [6] (20 mg/Kg s.c.) of 21.5 ± 3.9.

`COc1ccc(-n2c(-c3ccc(S(C)(=O)=O)cc3)cc(CC(=O)OC(C)C)c2C)cc1` [Example 3, Isopropyl[1-(4-methoxy)phenyl-2-methyl-5-(4-methylsulphonyl)phenyl-1H-pyrrol-3-yl]acetate] showed a melting point of 138 °C. Also, the “COX-1/COX-2 Selectivity Index (IC50 ratio)” value on COX-2 is on record as more than 4500. Further, in series [1] (setting [8]), the inhibition in vivo at 20 mg/kg was found to be 67%. In series [1] (setting [9]), the inhibition in vivo at 20 mg/kg turned out to be 90%. For the same compound, the inhibition in vivo at 20 mg/kg in series [2] is 77%. For the same compound, the Number of writhes in [6] (20 mg/Kg s.c.) is 18.5 ± 3.5.

Regarding `Cc1c(CC(=O)OC(C)C)cc(-c2ccc(S(C)(=O)=O)cc2)n1-c1cccc(F)c1` [Example 4, Isopropyl[1-(3-fluoro)phenyl-2-methyl-5-(4-methylsulphonyl)phenyl-1H-pyrrol-3-yl]acetate], the melting point was found to be 100 °C. The “COX-1/COX-2 Selectivity Index (IC50 ratio)” value at COX-2 is more than 2300. Further, the inhibition in vivo at 20 mg/kg in series [1] (setting [8]) was determined as 84%. The inhibition in vivo at 20 mg/kg in [1] (setting [9]) turned out to be 80%. In series [2], the inhibition in vivo at 20 mg/kg worked out at 87%. Moreover, the Number of writhes in [6] (20 mg/Kg s.c.) came to 17.7 ± 2.9.

Consider `CCCCOC(=O)Cc1cc(-c2ccc(S(C)(=O)=O)cc2)n(-c2ccc(F)c(F)c2)c1C` [Example 5, n-Butyl[1-(3,4-difluoro)phenyl-2-methyl-5-(4-methylsulphonyl)phenyl-1H-pyrrol-3-yl]acetate], for which the melting point amounted to 112 °C. For the same compound, the “COX-1/COX-2 Selectivity Index (IC50 ratio)” value on COX-2 is on record as more than 3300. Further, the inhibition in vivo at 20 mg/kg in [1] (setting [8]) was determined as 76%. In addition, the inhibition in vivo at 20 mg/kg in [1] (setting [9]) came out at 100%. In [2], the inhibition in vivo at 20 mg/kg was found to be 74%. Further, in series [6] (20 mg/Kg s.c.), the Number of writhes was determined as 13.7 ± 4.0.

Take `CS(=O)(=O)c1ccc(C2=C(c3ccccc3)C(=O)OC2)cc1` [Rofecoxib]: the “COX-1/COX-2 Selectivity Index (IC50 ratio)” value at COX-2 was more than 800. In addition, the “incidence of acute myocardial infarction, Rofecoxib arm compared with the Naproxen arm” value in [7] is “five-fold increase”. Also, the “effect on intraocular pressure” value in the series on glaucomatous rabbits is “had no effect”. Further, in the series with low-density lipoprotein, the “susceptibility of low-density lipoprotein to oxidative modifications” value was “increases susceptibility”.

As to `Cc1onc(-c2ccccc2)c1-c1ccc(S(N)(=O)=O)cc1` [Valdecoxib], the “effect on intraocular pressure” value in the series with glaucomatous rabbits is “reduce intraocular pressure”.
